Experimental data: US20210045385A1, “PYRIDAZINONE-SUBSTITUTED KETOXIMES AS HERBICIDES” (FMC Corporation, priority 2018, published 2021)

Experiments:
Type in all cases: in vivo
[1] = system: Italian ryegrass (Lolium multiflorum); experiment: Test A preemergence, visual plant response rating; conditions: for Ryegrass, Italian plant response rating: preemergence, 0 to 100 scale, 0 no effect, 100 complete control; for Ryegrass, Italian plant response rating (0 to 100 scale): 500 g ai/ha Preemergence, approx. 10 days
In short: (§1)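 Greenhouse evaluation, approx. 10 days post-spray. Soil: loam + sand. Postemergence stage: 1–2 leaves, height 2–10 cm. Vehicle: non-phytotoxic solvent blend with surfactant. Score: visual injury on a 0 (no effect) to 100 (complete control) scale.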

[2] = system: barnyardgrass (Echinochloa crus-galli); experiment: Test A preemergence, visual plant response rating; conditions: for Barnyardgrass plant response rating: preemergence, 0 to 100 scale, 0 no effect, 100 complete control; for Barnyardgrass plant response rating (0 to 100 scale): 500 g ai/ha Preemergence, approx. 10 days
In short: as §1

[3] = system: foxtail, giant (giant foxtail, Setaria faberii); experiment: Test A preemergence, visual plant response rating; conditions: for Foxtail, Giant plant response rating: preemergence, 0 to 100 scale, 0 no effect, 100 complete control; for Foxtail, Giant plant response rating (0 to 100 scale): 500 g ai/ha Preemergence, approx. 10 days
In short: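 Ratings use a 0–100 visual scale (100 = complete control) against untreated controls, scored about 10 days after greenhouse treatment. Test chemicals were formulated in surfactant-containing non-phytotoxic solvent and applied either as soil spray after planting (preemergence) or onto one- to two-leaf, 2–10 cm plants (postemergence).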

kochia (Kochia scoparia) [4] = experiment: Test A preemergence, visual plant response rating; conditions: for Kochia plant response rating: preemergence, 0 to 100 scale, 0 no effect, 100 complete control; for Kochia plant response rating (0 to 100 scale): 500 g ai/ha Preemergence, approx. 10 days
In short: as §1

[5] = system: pigweed (Amaranthus retroflexus); experiment: Test A preemergence, visual plant response rating; conditions: for Pigweed plant response rating: preemergence, 0 to 100 scale, 0 no effect, 100 complete control; for Pigweed plant response rating (0 to 100 scale): 500 g ai/ha Preemergence, approx. 10 days
In short: as §1

[6] = system: ragweed (common ragweed, Ambrosia elatior); experiment: Test A preemergence, visual plant response rating; conditions: for Ragweed plant response rating: preemergence, 0 to 100 scale, 0 no effect, 100 complete control; for Ragweed plant response rating (0 to 100 scale): 500 g ai/ha Preemergence, approx. 10 days
In short: as §1

[7] = system: Italian ryegrass (Lolium multiflorum); experiment: Test A postemergence, visual plant response rating; conditions: for Ryegrass, Italian plant response rating: 125 g ai/ha, 0 to 100 scale (0 no effect, 100 complete control)
In short: as §1

[8] = system: barnyardgrass (Echinochloa crus-galli); experiment: Test A postemergence, visual plant response rating; conditions: for Barnyardgrass plant response rating: Postemergence, 125 g ai/ha, 0 to 100 scale (0 no effect, 100 complete control)
In short: as §1

[9] = system: blackgrass (Alopecurus myosuroides); experiment: Test A postemergence, visual plant response rating; conditions: for Blackgrass plant response rating: Postemergence, 125 g ai/ha, 0 to 100 scale (0 no effect, 100 complete control)
In short: as §1

corn (Zea mays) = experiment: Test A postemergence, visual plant response rating; conditions: for Corn plant response rating: Postemergence, 125 g ai/ha, 0 to 100 scale (0 no effect, 100 complete control)
In short: as §1

[10] = system: foxtail, giant (giant foxtail, Setaria faberii); experiment: Test A postemergence, visual plant response rating; conditions: for Foxtail, Giant plant response rating: Postemergence, 125 g ai/ha, 0 to 100 scale (0 no effect, 100 complete control)
In short: as §1

[11] = system: galium (catchweed bedstraw, Galium aparine); experiment: Test A postemergence, visual plant response rating; conditions: for Galium plant response rating: Postemergence, 125 g ai/ha, 0 to 100 scale (0 no effect, 100 complete control)
In short: as §1

kochia (Kochia scoparia) [12] = experiment: Test A postemergence, visual plant response rating; conditions: for Kochia plant response rating: Postemergence, 125 g ai/ha, 0 to 100 scale (0 no effect, 100 complete control)
In short: as §1

[13] = system: pigweed (Amaranthus retroflexus); experiment: Test A postemergence, visual plant response rating; conditions: for Pigweed plant response rating: Postemergence, 125 g ai/ha, 0 to 100 scale (0 no effect, 100 complete control)
In short: as §1

[14] = system: ragweed (common ragweed, Ambrosia elatior); experiment: Test A postemergence, visual plant response rating; conditions: for Ragweed plant response rating: Postemergence, 125 g ai/ha, 0 to 100 scale (0 no effect, 100 complete control)
In short: as §1

[15] = system: wheat (Triticum aestivum); experiment: Test A postemergence, visual plant response rating; conditions: for Wheat plant response rating: 0 to 100 scale (0 no effect, 100 complete control)
In short: as §1

[16] = system: barnyardgrass (Echinochloa crus-galli); experiment: Test B flooded paddy test, visual plant response rating; conditions: 250 g ai/ha, Flood, applied to paddy water, 2-leaf stage, evaluated after 13 to 15 days
In short: (§2)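 Test pots are flooded 3 cm above the soil at treatment, and the test substance is introduced into this standing water. After keeping the flood level and growing plants, treated at the 2-leaf stage, for 13 to 15 days under glass, injury is assessed visually versus controls.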

[17] = system: ducksalad (Heteranhera limosa); experiment: as above; conditions: 250 g ai/ha, Flood, applied to paddy water, 2-leaf stage, evaluated after 13 to 15 days
In short: as §2

rice (Oryza sativa) = experiment: as above; conditions: 250 g ai/ha, Flood, applied to paddy water, 2-leaf stage, evaluated after 13 to 15 days
In short: as §2

[18] = system: sedge, umbrella (small-flower umbrella sedge, Cyperus difformis); experiment: as above; conditions: 250 g ai/ha, Flood, applied to paddy water, 2-leaf stage, evaluated after 13 to 15 days
In short: as §2

[19] = 1000 g ai/ha Postemergence, approx. 10 days
[20] = 500 g ai/ha, postemergence, 0 is no effect, 100 is complete control

Compound	Plant response rating, Barnyardgrass (0 to 100 scale, 0 is no effect, 100 is complete control) [16]	Plant response rating, Ducksalad (0 to 100 scale, 0 is no effect, 100 is complete control) [17]	Plant response rating, Rice (0 to 100 scale, 0 is no effect, 100 is complete control) (rice (Oryza sativa))	Plant response rating, Sedge, Umbrella (0 to 100 scale, 0 is no effect, 100 is complete control) [18]	Ryegrass, Italian plant response rating ([1]; 125 g ai/ha)	Ryegrass, Italian plant response rating (0 to 100 scale) [1]	Barnyardgrass plant response rating ([2]; 125 g ai/ha)	Barnyardgrass plant response rating (0 to 100 scale) [2]	Foxtail, Giant plant response rating ([3]; 125 g ai/ha)	Foxtail, Giant plant response rating (0 to 100 scale) [3]	Kochia plant response rating (kochia (Kochia scoparia) [4]; 125 g ai/ha)	Kochia plant response rating (0 to 100 scale) (kochia (Kochia scoparia) [4])	Pigweed plant response rating ([5]; 125 g ai/ha)	Pigweed plant response rating (0 to 100 scale) [5]	Ragweed plant response rating ([6]; 125 g ai/ha)	Ragweed plant response rating (0 to 100 scale) [6]	Ryegrass, Italian plant response rating (0 to 100 scale) [7, 20]	Barnyardgrass plant response rating (0 to 100 scale) [8, 20]	Barnyardgrass plant response rating [8]	Blackgrass plant response rating (0 to 100 scale) [9, 20]	also measured
CCON=C(c1cccc(C)c1)c1c(O)c(C)nn(C)c1=O (mixture of isomers) [Compound 6]	0	0	0	0	–	–	–	–	–	–	–	–	–	–	–	–	–	–	–	–	Ryegrass, Italian plant response rating ([1]; 1000 g ai/ha): 80; Barnyardgrass plant response rating ([2]; 1000 g ai/ha): 30; Foxtail, Giant plant response rating ([3]; 1000 g ai/ha): 30; Kochia plant response rating (kochia (Kochia scoparia) [4]; 1000 g ai/ha): 20; Pigweed plant response rating ([5]; 1000 g ai/ha): 70; Ragweed plant response rating ([6]; 1000 g ai/ha): 50; Ryegrass, Italian plant response rating (0 to 100 scale) [7, 19]: 70; Barnyardgrass plant response rating (0 to 100 scale) [8, 19]: 30; Blackgrass plant response rating (0 to 100 scale) [9, 19]: 10; Corn plant response rating (0 to 100 scale) (corn (Zea mays); [19]): 0; Foxtail, Giant plant response rating (0 to 100 scale) [10, 19]: 50; Galium plant response rating (0 to 100 scale) [11, 19]: 90; Kochia plant response rating (0 to 100 scale) (kochia (Kochia scoparia) [12]; [19]): 80; Pigweed plant response rating (0 to 100 scale) [13, 19]: 80; Ragweed plant response rating (0 to 100 scale) [14, 19]: 90; Wheat plant response rating (0 to 100 scale) [15, 19]: 0
CO/N=C(\c1ccccc1C#N)c1c(O)c(C)nn(C)c1=O [Compound 76]	0	0	0	0	0	0	0	0	0	0	0	0	0	10	0	0	30	20	20	0	Ryegrass, Italian plant response rating ([7]; Postemergence): 20; Blackgrass plant response rating [9]: 0; Corn plant response rating (0 to 100 scale) (corn (Zea mays); [20]): 0; Corn plant response rating (corn (Zea mays)): 0; Foxtail, Giant plant response rating (0 to 100 scale) [10, 20]: 0; Foxtail, Giant plant response rating [10]: 0; Galium plant response rating (0 to 100 scale) [11, 20]: 70; Galium plant response rating [11]: 40; Kochia plant response rating (0 to 100 scale) (kochia (Kochia scoparia) [12]; [20]): 0; Kochia plant response rating (kochia (Kochia scoparia) [12]): 0; Pigweed plant response rating (0 to 100 scale) [13, 20]: 70; Pigweed plant response rating [13]: 40; Ragweed plant response rating (0 to 100 scale) [14, 20]: 60; Ragweed plant response rating [14]: 10; Wheat plant response rating (0 to 100 scale) [15, 20]: 0; Wheat plant response rating ([15]; Postemergence, 125 g ai/ha): 0
CO/N=C(/c1c(O)c(C)nn(C)c1=O)c1ccc(OC)c2ccccc12 [Compound 142]	0	0	0	0	0	20	0	50	10	60	0	0	0	0	0	20	70	10	10	80	Ryegrass, Italian plant response rating (0 to 100 scale) ([7]; Postemergence, rate not given, approx. 10 days): 0; Blackgrass plant response rating [9]: 30; Corn plant response rating (0 to 100 scale) (corn (Zea mays); [20]): 30; Corn plant response rating (corn (Zea mays)): 0; Foxtail, Giant plant response rating (0 to 100 scale) [10, 20]: 30; Foxtail, Giant plant response rating [10]: 20; Galium plant response rating (0 to 100 scale) [11, 20]: 70; Galium plant response rating [11]: 50; Kochia plant response rating (0 to 100 scale) (kochia (Kochia scoparia) [12]; [20]): 30; Kochia plant response rating (kochia (Kochia scoparia) [12]): 0; Pigweed plant response rating (0 to 100 scale) [13, 20]: 10; Pigweed plant response rating [13]: 10; Ragweed plant response rating (0 to 100 scale) [14, 20]: 30; Ragweed plant response rating [14]: 0; Wheat plant response rating ([15]; Postemergence, 500 g ai/ha): 10; Wheat plant response rating (0 to 100 scale) ([15]; Postemergence, approx. 10 days): 0
CO/N=C(/c1ccccc1C#N)c1c(O)c(C)nn(C)c1=O [Compound 77]	0	0	0	0	0	0	0	0	0	0	0	0	0	0	10	30	20	0	0	0	Ryegrass, Italian plant response rating ([7]; Postemergence): 0; Blackgrass plant response rating [9]: 0; Corn plant response rating (0 to 100 scale) (corn (Zea mays); [20]): 0; Corn plant response rating (corn (Zea mays)): 0; Foxtail, Giant plant response rating (0 to 100 scale) [10, 20]: 10; Foxtail, Giant plant response rating [10]: 0; Galium plant response rating (0 to 100 scale) [11, 20]: 40; Galium plant response rating [11]: 40; Kochia plant response rating (0 to 100 scale) (kochia (Kochia scoparia) [12]; [20]): 30; Kochia plant response rating (kochia (Kochia scoparia) [12]): 0; Pigweed plant response rating (0 to 100 scale) [13, 20]: 70; Pigweed plant response rating [13]: 30; Ragweed plant response rating (0 to 100 scale) [14, 20]: 30; Ragweed plant response rating [14]: 0; Wheat plant response rating (0 to 100 scale) [15, 20]: 0; Wheat plant response rating ([15]; Postemergence, 125 g ai/ha): 0
CON=C(c1c(O)c(C)nn(C)c1=O)c1ccc(F)c2ccccc12 [Compound 51]	15	75	15	65	70	100	60	80	70	100	10	80	90	90	90	100	100	80	30	100	Ryegrass, Italian plant response rating ([7]; Postemergence): 90; Blackgrass plant response rating [9]: 90; Corn plant response rating (0 to 100 scale) (corn (Zea mays); [20]): 20; Corn plant response rating (corn (Zea mays)): 10; Foxtail, Giant plant response rating (0 to 100 scale) [10, 20]: 90; Foxtail, Giant plant response rating [10]: 50; Galium plant response rating (0 to 100 scale) [11, 20]: 100; Galium plant response rating [11]: 100; Kochia plant response rating (0 to 100 scale) (kochia (Kochia scoparia) [12]; [20]): 90; Kochia plant response rating (kochia (Kochia scoparia) [12]): 80; Pigweed plant response rating (0 to 100 scale) [13, 20]: 90; Pigweed plant response rating [13]: 90; Ragweed plant response rating (0 to 100 scale) [14, 20]: 100; Ragweed plant response rating [14]: 80; Wheat plant response rating (0 to 100 scale) [15, 20]: 90; Wheat plant response rating ([15]; Postemergence, 125 g ai/ha): 70
